Experimental data as given in patent EP2607478A1, “Phenanthroline treated MSC” (Universiteit Twente, priority 2011, dated 2013).
Entries after “also recorded” stand apart in the source; their conditions may differ.

Test system: MSCs
Assay: Whole genome expression analysis (Illumina microarray) of treated MSCs
Type: cell-based, Human
Experimental: MSCs were seeded in T25 flasks at 5000 cells/cm^2 and allowed to attach overnight in proliferation medium. […] After 48 hours, RNA was isolated as described above. From 500 ng of RNA, cRNA was synthesized using the Illumina TotalPrep RNA amplification Kit (Ambion), according to the manufacturer's protocol and the quality of RNA and cRNA was verified on a Bioanalyzer 2100 (Agilent). Microarrays were performed using Illumina HT-12 v4 expression Beadchips, according to the manufacturer's protocol. Briefly, 750 ng of cRNA was hybridized on the array overnight after which the array was washed and blocked. Then, by addition of streptavidin Cy-3 a fluorescent signal was developed. Arrays were scanned on an Illumina iScan reader and raw intensity values were background corrected in GenomeStudio (Illumina). Further data processing and statistical testing were performed with R and Bioconductor statistical software (www.bioconductor.org), using package lumi. Raw intensity values were transformed using variance stabilization and a quantile normalization was performed. A linear modelling approach with empirical Bayesian methods, as implemented in Limma package (54), was applied for differential expression analysis of the resulting probe-level expression values. A gene list, containing only those genes with an absolute 1.5-fold change between different treatments, was uploaded to Ingenuity Pathway Analysis (IPA) software and used for core analysis. Pathways or networks with a p-value of 0.05 were considered statistically significant.

With `c1cnc2c(c1)ccc1cccnc12` [PHE, 1, 10-phenanthroline] the “interleukin-8 (Il-8) gene expression” value (MSCs treated for two days, 150 µM DFO or 200 µM PHE) was “highly induced”, the “expression of HRE-containing genes (metabolism, cell growth and survival, endothelial genes)” value (MSCs treated for two days, 150 µM DFO or 200 µM PHE, relative to basic medium) was “most genes were strongest induced; also recorded: markedly induced higher expression” and the “expression of RelA” value (PHE compared to hypoxia or DFO-treated cells) was “higher”. The “expression of P300” value (PHE-treated cells) was “higher expression”, the “logFC(D142_PHE - D142_BAS) BNIP3L” value (ProbeID ILMN 2045419) was 2,33 and the “logFC(D142_PHE - D142_BAS) CYTH2” value (ProbeID ILMN 3188106) was 2,19. For the same molecule, the “logFC(D142_PHE - D142_BAS) HIST1H2BD” value (ProbeID ILMN_1651496) was 3,85, the “logFC(D142_PHE - D142_BAS) MGP” value (ProbeID ILMN_1651958) was -2,09 and the “logFC(D142_PHE - D142_BAS) PFKFB4” value (ProbeID ILMN_1653292) was 4,21. The “logFC(D142_PHE - D142_BAS) HES4” value (ProbeID ILMN_1653466) was 2,11, the “logFC(D142_PHE - D142_BAS)” value (ProbeID ILMN_1655796) was 2,37 and the “logFC(D142_PHE - D142_BAS) ELL2” value (ProbeID ILMN_1655930) was 2,00. For the same molecule, the “logFC(D142_PHE - D142_BAS) PLAU” value (ProbeID ILMN_1656057, PHE vs BAS) was -3,95, the “logFC(D142_PHE - D142_BAS) DUSP5” value (ProbeID ILMN_1656501) was 3,07 and the “logFC(D142_PHE - D142_BAS) C1orf198” value (ProbeID ILMN_1657683, PHE vs BAS) was -2,35. For the same molecule, the “logFC(D142_PHE - D142_BAS) STMN1” value (ProbeID ILMN_1657796) was -2,32, the “logFC(D142_PHE - D142_BAS) LOC728946” value (ProbeID ILMN_1657962) was -2,02 and the “logFC(D142_PHE - D142_BAS) SLC2A1” value (ProbeID ILMN_1659027) was 4,08. The “logFC(D142_PHE - D142_BAS) HIST2H2AA3” value (ProbeID ILMN_1659047) was 3,78, the “logFC(D142_PHE - D142_BAS) PPP1R15A” value (ProbeID ILMN_1659936) was 2,65 and the “logFC(D142_PHE - D142_BAS) C7orf68” value (ProbeID ILMN_1659990) was 3,65. For the same molecule, the “logFC(D142_PHE - D142_BAS) CDCA2” value (ProbeID ILMN_1660654) was 2,66, the “logFC(D142_PHE - D142_BAS) PFKFB3” value (ProbeID ILMN_1660847) was 3,69 and the “logFC(D142_PHE - D142_BAS) LOC648210” value (ProbeID ILMN_1661346) was -2,02. The “logFC(D142_PHE - D142_BAS) DDIT4” value (ProbeID ILMN_1661599) was 4,48, the “logFC(D142_PHE - D142_BAS) TFPI” value (ProbeID ILMN_1662619) was 2,06 and the “logFC(D142_PHE - D142_BAS) CDC20” value (ProbeID ILMN_1663390, PHE vs BAS) was -2,55. The “logFC(D142_PHE - D142_BAS) MGC87042” value (ProbeID ILMN_1663575, PHE vs BAS) was -2,77, the “logFC(D142_PHE - D142_BAS) PPP1R14C” value (ProbeID ILMN_1664855) was 2,96 and the “logFC(D142_PHE - D142_BAS) ERRFI1” value (ProbeID ILMN_1665510) was 3,36. For the same molecule, the “logFC(D142_PHE - D142_BAS) TNFRSF10D” value (ProbeID ILMN_1666022) was 3,48, the “logFC(D142_PHE - D142_BAS) CDKN3” value (ProbeID ILMN_1666305, PHE vs BAS) was -2,37 and the “logFC(D142_PHE - D142_BAS) GCNT1” value (ProbeID ILMN_1666545) was -2,01. The “logFC(D142_PHE - D142_BAS) IL8” value (ProbeID ILMN_1666733) was 5,35, the “logFC(D142_PHE - D142_BAS) PTGIS” value (ProbeID ILMN_1667692) was -2,11 and the “logFC(D142_PHE - D142_BAS) PPFIA4” value (ProbeID ILMN_1667791) was 2,71. For the same molecule, the “logFC(D142_PHE - D142_BAS) TNS3” value (ProbeID ILMN_1667893, PHE vs BAS) was -2,61, the “logFC(D142_PHE - D142_BAS) OAF” value (ProbeID ILMN_1668345) was -2,06 and the “logFC(D142_PHE - D142_BAS) LOC732165” value (ProbeID ILMN_1668861) was 2,33. For the same molecule, the “logFC(D142_PHE - D142_BAS) LOC728946” value (ProbeID ILMN_1669119, PHE vs BAS) was -2,56, the “logFC(D142_PHE - D142_BAS) ILF3” value (ProbeID ILMN_1669584) was -2,03 and the “logFC(D142_PHE - D142_BAS) CKB” value (ProbeID ILMN_1671478) was 2,73. For the same molecule, the “logFC(D142_PHE - D142_BAS) ACTA2” value (ProbeID ILMN_1671703, PHE vs BAS) was -3,04, the “logFC(D142_PHE - D142_BAS) AVPI1” value (ProbeID ILMN_1671731) was 2,16 and the “logFC(D142_PHE - D142_BAS) JAM2” value (ProbeID ILMN_1672350) was 2,37. The “logFC(D142_PHE - D142_BAS) KISS1R” value (ProbeID ILMN_1673521) was 3,05, the “logFC(D142_PHE - D142_BAS) TFRC” value (ProbeID ILMN_1674243) was 2,40 and the “logFC(D142_PHE - D142_BAS) ANGPTL4” value (ProbeID ILMN_1674376) was 2,49. For the same molecule, the “logFC(D142_PHE - D142_BAS) MYL9” value (ProbeID ILMN_1675062) was -2,11, the “logFC(D142_PHE - D142_BAS) MT3” value (ProbeID ILMN_1675947) was 4,91 and the “logFC(D142_PHE - D142_BAS) MSRB3” value (ProbeID ILMN_1676088, PHE vs BAS) was -2,43. The “logFC(D142_PHE - D142_BAS) INSIG2” value (ProbeID ILMN_1676629) was 2,16, the “logFC(D142_PHE - D142_BAS) TNFRSF11B” value (ProbeID ILMN_1676663, PHE vs BAS) was -3,04 and the “logFC(D142_PHE - D142_BAS) YEATS2” value (ProbeID ILMN_1676899) was 2,21. For the same molecule, the “logFC(D142_PHE - D142_BAS) PTGS2” value (ProbeID ILMN_1677511) was 2,13, the “logFC(D142_PHE - D142_BAS) CHN1” value (ProbeID ILMN_1678493, PHE vs BAS) was -2,73 and the “logFC(D142_PHE - D142_BAS) THBS2” value (ProbeID ILMN_1678842) was -2,24. The “logFC(D142_PHE - D142_BAS) SLC3A2” value (ProbeID ILMN_1679041) was 2,15, the “logFC(D142_PHE - D142_BAS) CLK1” value (ProbeID ILMN_1679727) was 2,72 and the “logFC(D142_PHE - D142_BAS) MAFF” value (ProbeID ILMN_1680139) was 3,87. For the same molecule, the “logFC(D142_PHE - D142_BAS) C5orf13” value (ProbeID ILMN_1680738, PHE vs BAS) was -2,41, the “logFC(D142_PHE - D142_BAS) GPRC5A” value (ProbeID ILMN_1682599) was 4,51 and the “logFC(D142_PHE - D142_BAS) IER3” value (ProbeID ILMN_1682717) was 2,62. For the same molecule, the “logFC(D142_PHE - D142_BAS) RRAD” value (ProbeID ILMN_1683179) was 2,75, the “logFC(D142_PHE - D142_BAS) LOC286016” value (ProbeID ILMN_1684114) was 2,09 and the “logFC(D142_PHE - D142_BAS) GPT2” value (ProbeID ILMN_1684158) was 2,19. For the same molecule, the “logFC(D142_PHE - D142_BAS) COL16A1” value (ProbeID ILMN_1684554) was -2,06, the “logFC(D142_PHE - D142_BAS) ASAP3” value (ProbeID ILMN_1685441, PHE vs BAS) was -2,35 and the “logFC(D142_PHE - D142_BAS) INHBB” value (ProbeID ILMN_1685714) was 3,60. The “logFC(D142_PHE - D142_BAS) TOP2A” value (ProbeID ILMN_1686097, PHE vs BAS) was -3,07, the “logFC(D142_PHE - D142_BAS) THBS1” value (ProbeID ILMN_1686116, PHE vs BAS) was -3,00 and the “logFC(D142_PHE - D142_BAS) VCAN” value (ProbeID ILMN_1687301, PHE vs BAS) was -2,38. The “logFC(D142_PHE - D142_BAS) BAALC” value (ProbeID ILMN_1687751) was -2,07, the “logFC(D142_PHE - D142_BAS) COLEC12” value (ProbeID ILMN_1689088, PHE vs BAS) was -3,75 and the “logFC(D142_PHE - D142_BAS) CXCL12” value (ProbeID ILMN_1689111, PHE vs BAS) was -3,44. For the same molecule, the “logFC(D142_PHE - D142_BAS) NIPA1” value (ProbeID ILMN_1689274) was 2,08, the “logFC(D142_PHE - D142_BAS) STAT1” value (ProbeID ILMN_1690105) was -2,04 and the “logFC(D142_PHE - D142_BAS) PDLIM7” value (ProbeID ILMN_1690125, PHE vs BAS) was -2,57. For the same molecule, the “logFC(D142_PHE - D142_BAS) STAT2” value (ProbeID ILMN_1690921) was -2,24, the “logFC(D142_PHE - D142_BAS) STAT1” value (ProbeID ILMN_1691364, PHE vs BAS) was -2,77 and the “logFC(D142_PHE - D142_BAS) MYLK” value (ProbeID ILMN_1691476, PHE vs BAS) was -3,27. For the same molecule, the “logFC(D142_PHE - D142_BAS) STC2” value (ProbeID ILMN_1691884) was 3,81, the “logFC(D142_PHE - D142_BAS) KLHL21” value (ProbeID ILMN_1692785) was 2,54 and the “logFC(D142_PHE - D142_BAS) PSAT1” value (ProbeID ILMN_1692938) was 2,74. For the same molecule, the “logFC(D142_PHE - D142_BAS) P4HA1” value (ProbeID ILMN_1693334) was 3,46, the “logFC(D142_PHE - D142_BAS) MAP2K1” value (ProbeID ILMN_1694240) was 2,11 and the “logFC(D142_PHE - D142_BAS) PANX2” value (ProbeID ILMN_1694810) was 2,42. For the same molecule, the “logFC(D142_PHE - D142_BAS) KIF20A” value (ProbeID ILMN_1695658, PHE vs BAS) was -3,25, the “logFC(D142_PHE - D142_BAS) DDIT4L” value (ProbeID ILMN_1696537) was -2,12 and the “logFC(D142_PHE - D142_BAS) VARS” value (ProbeID ILMN_1696601) was -2,08. For the same molecule, the “logFC(D142_PHE - D142_BAS) TNFRSF10B” value (ProbeID ILMN_1699265) was 2,54 and the “logFC(D142_PHE - D142_BAS)” value (ProbeID ILMN_1699644) was 2,20.
